Laboratory results taken from patent US8338431B2, “Phosphodiesterase inhibitors” (Leo Pharma A/S, priority 2007, dated 2012).
Like-named read-outs stand apart in the source and are kept apart here.

What was measured:
[1] = target: Human recombinant PDE4 (Genbank accession no NM—006203) (Homo sapiens, UniProt Q08499); assay: PDE4 Assay (SPA, cleavage of cAMP); assay type: biochemical
Description: Human recombinant PDE4 (Genbank accession no NM_006203) was incubated for 1 hour, with the test compound at concentrations up to 10 μM, with cAMP (1×10^-5M), and with a low amount (0.021 MBq) of radioactively labelled cAMP. At the end of the incubation, the cleavage of the substrate was evaluated by the binding of the AMP product to SPA beads, which generate […] when bound to the radioactive tracer. The AMP product inhibited the binding of the radioactive tracer to the beads, and the luminescent signal was competed. The results were calculated as the molar concentrations resulting in 50% inhibition of the substrate cleavage compared to controls samples, and are expressed as IC50 (M).

[2] = tested on: TNF-α release from human peripheral blood mononuclear cells (PBMC); assay: TNF-α Release in LPS stimulated PBMC; assay type: cell-based; details: 30 minutes pre-incubation, stimulated 18 hours with lipopolysaccharide, TNF-α in supernatant by enzyme immunoassay
Description: Human peripheral blood mononuclear cells (PBMC) were isolated from buffy coats. The blood is mixed with saline at a ratio of 1:1, and the PBMC were isolated using Lymphoprep Tubes™ (Nycomed, Norway). The PBMC were suspended in RPMI1640 with 2% foetal calf serum (FCS), pen/strep and 2 mM L-glutamine at a concentration of […]. The cells were pre-incubated for 30 minutes with the test compounds in 96 well tissue culture plates and stimulated for 18 hours with lipopolysaccharide […] (Sigma). The level of TNF-α was measured in the culture supernatant by enzyme immunoassays using primary and secondary biotinylated antibodies from R&D systems. Results are expressed as IC50 values calculated from inhibition curves using as positive controls the secretion in LPS stimulated wells and as negative controls the secretion in unstimulated cells.

[3] = human recombinant PDE4, 1 hour incubation, cAMP 1×10^-5M, test compound up to 10 μM, read-out: IC50 (PDE4)

Sequence of Human recombinant PDE4 (Genbank accession no NM—006203) (Q08499 1-673 isoform Q08499-2): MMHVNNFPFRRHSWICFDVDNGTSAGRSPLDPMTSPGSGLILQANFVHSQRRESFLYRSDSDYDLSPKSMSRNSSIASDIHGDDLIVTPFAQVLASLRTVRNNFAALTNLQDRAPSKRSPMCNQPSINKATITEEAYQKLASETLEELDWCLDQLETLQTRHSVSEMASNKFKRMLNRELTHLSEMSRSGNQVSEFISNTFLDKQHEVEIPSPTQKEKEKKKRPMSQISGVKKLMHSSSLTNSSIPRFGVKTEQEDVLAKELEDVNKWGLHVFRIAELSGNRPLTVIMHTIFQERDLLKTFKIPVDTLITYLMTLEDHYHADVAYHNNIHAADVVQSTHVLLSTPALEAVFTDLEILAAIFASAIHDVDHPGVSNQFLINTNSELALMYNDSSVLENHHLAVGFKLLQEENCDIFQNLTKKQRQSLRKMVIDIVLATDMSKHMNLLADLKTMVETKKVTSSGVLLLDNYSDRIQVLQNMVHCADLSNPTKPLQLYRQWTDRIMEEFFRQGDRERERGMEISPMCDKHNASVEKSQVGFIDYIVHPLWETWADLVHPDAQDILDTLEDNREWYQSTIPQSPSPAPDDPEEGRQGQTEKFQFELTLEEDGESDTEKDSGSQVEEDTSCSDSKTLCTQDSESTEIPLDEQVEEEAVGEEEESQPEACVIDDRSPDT

| SMILES | IC50 [1, 3] | IC50 [2] | IC50 [1] |
| --- | --- | --- | --- |
| COc1ccc(C(=O)Cc2c(Cl)cncc2Cl)c2c1OCC1(CO2)CS(=O)(=O)C1 [Compound 124, 2-(3,5-Dichloropyridin-4-yl)-1-{9-methoxy-spiro[2H-1,5-benzodioxepin-3(4H),3′-thietane-1′,1′-dioxide]-6-yl}ethanone] | 104 nM | 135 nM | – |
| COc1ccc(C(=O)Cc2c(Cl)cncc2Cl)c2c1OC1(CC[S+]([O-])CC1)O2 (centres unmarked) [Compound 111, 2-(3,5-Dichloropyridine-4-yl)-1-(7-methoxy-2′,3′,5′,6′-tetrahydro-spiro[1,3-benzodioxole-2,4′-(4H)-thiopyran 1′-oxide]-4-yl)ethanone] | 18 nM | 19 nM | – |
| COc1ccc(C(=O)Cc2cnccn2)c2c1OC1(CCSCC1)O2 [Compound 116, 2-(-pyrazin-2-yl)-1-(7-methoxy-2′,3′,5′,6′-tetrahydro-spiro[1,3-benzodioxole-2,4′-(4H)-thiopyran]-4-yl)ethanone] | 1290 nM | 2940 nM | – |
| COc1ccc(C(=O)Cc2c(Cl)c[n+]([O-])cc2Cl)c2c1OCC1(CO2)CS(=O)(=O)C1 [Compound 125, 2-(3,5-Dichloropyridin-1-oxido-4-yl)-1-{9-methoxy-spiro[2H-1,5-benzodioxepin-3(4H),3′-thietane-1′,1′-dioxide]-6-yl}ethanone] | 200 nM | 135 nM | – |
| COc1ccc(C(=O)Cc2c(Cl)cncc2Cl)c2c1OCC1(CO2)OCCO1 [Compound 126, 2-(3,5-Dichloropyridin-4-yl)-1-{9-methoxy-spiro[2H-1,5-benzodioxepin-3(4H),2′-(1,3-dioxolane)]-6-yl}ethanone] | 67 nM | 111 nM | – |
| COc1ccc(C(=O)Cc2c(Cl)cncc2Cl)c2c1OC1(CCN(C(C)=O)CC1)O2 [Compound 108, 2-(3,5-Dichloropyridine-4-yl)-1-(7-methoxy-1′-acetyl-spiro[1,3-benzodioxole-2,4′-piperidine]-4-yl)ethanone] | – | 167 nM | 220 nM |
| COc1ccc(C(=O)Cc2c(Cl)c[n+]([O-])cc2Cl)c2c1OC1(CCS(=O)(=O)CC1)O2 [Compound 113, 2-(3,5-Dichloro-1-oxido-pyridine-4-yl)-1-(7-methoxy-2′,3′,5′,6′-tetrahydro-spiro[1,3-benzodioxole-2,4′-(4H)-thiopyran-1′,1′-dioxide]-4-yl)ethanone] | 53 nM | 82 nM | – |
| COc1ccc(C(=O)Cc2c(Cl)cncc2Cl)c2c1OC1(CCOCC1)O2 [Compound 101, 2-(3,5-Dichloropyridine-4-yl)-1-(7-methoxy-2′,3′,5′,6′-tetrahydro-spiro[1,3-benzodioxole-2,4′-(4H)-pyran]-4-yl)ethanone] | 26 nM | 28 nM | – |
| COc1ccc(C(=O)Cc2ccnc3ccccc23)c2c1OC1(CCSCC1)O2 [Compound 118, 2-(quinolin-4-yl-)-1-(7-methoxy-2′,3′,5′,6′-tetrahydro-spiro[1,3-benzo-dioxole-2,4′-(4H)-thiopyran]-4-yl)ethanone] | 1800 nM | 5520 nM | – |
| COc1ccc(C(=O)Cc2ccncc2)c2c1OC1(CCSCC1)O2 [Compound 117, 2-(-pyridin-4-yl-)-1-(7-methoxy-2′,3′,5′,6′-tetrahydro-spiro[1,3-benzo-dioxole-2,4′-(4H)-thiopyran]-4-yl)ethanone] | 207 nM | 286 nM | – |
| COc1ccc(C(=O)Cc2c(Cl)cncc2Cl)c2c1OC1(CCSCC1)O2 [Compound 110, 2-(3,5-Dichloropyridine-4-yl)-1-(7-methoxy-2′,3′,5′,6′-tetrahydro-spiro[1,3-benzodioxole-2,4′-(4H)-thiopyran]-4-yl)ethanone] | 11 nM | 17 nM | – |
| COc1ccc(C(=O)Cc2c(Cl)cncc2Cl)c2c1OCC1(COCOC1)CO2 [Compound 130, 2-(3,5-Dichloropyridin-4-yl)-1-{9-methoxy-spiro[2H-1,5-benzodioxepin-3(4H),5′-[1,3]dioxane]-6-yl}ethanone] | 40 nM | 50 nM | – |
| COc1ccc(C(=O)Cc2c(Cl)c[n+]([O-])cc2Cl)c2c1OCC1(CCOCC1)CO2 [Compound 128, 2-(3,5-Dichloro-1-oxido-pyridin-4-yl)-1-{9-methoxy-spiro[2H-1,5-benzodioxepin-3(4H),4′-tetrahydropyran]-6-yl}ethanone] | 11 nM | 9 nM | – |
| COc1ccc(C(=O)Cc2c(Cl)c[n+]([O-])cc2Cl)c2c1OCC1(COC1)CO2 [Compound 122, 2-(3,5-Dichloro-1-oxido-pyridin-4-yl)-1-{9-methoxy-spiro[2H-1,5-benzodioxepin-3(4H),3′-oxetane]-6-yl}ethanone] | 50 nM | 20 nM | – |
| COc1ccc(C(=O)Cc2c(Cl)cncc2Cl)c2c1OC1(CCN(S(C)(=O)=O)CC1)O2 [Compound 107, 2-(3,5-Dichloropyridine-4-yl)-1-(7-methoxy-1′-[methylsulfonyl]-spiro[1,3-benzodioxole-2,4′-piperidine]-4-yl)ethanone] | 590 nM | 910 nM | – |
| COc1ccc(C(=O)Cc2c(Cl)c[n+]([O-])cc2Cl)c2c1OCC1(COCOC1)CO2 [Compound 131, 2-(3,5-Dichloro-1-oxido-pyridine-4-yl)-1-{9-methoxy-spiro[2H-1,5-benzodioxepin-3(4H),5′-[1,3]dioxane]-6-yl}ethanone] | 43 nM | 16 nM | – |
| COc1ccc(C(=O)Cc2c(Cl)cncc2Cl)c2c1OCC1(COC1)CO2 [Compound 121, 2-(3,5-Dichloropyridin-4-yl)-1-{9-methoxy-spiro[2H-1,5-benzodioxepin-3(4H),3′-oxetane]-6-yl}ethanone] | 52 nM | 64 nM | – |
| COc1ccc(C(=O)Cc2c(Cl)cncc2Cl)c2c1OCC1(CO2)CSC1 [Compound 123, 2-(3,5-Dichloropyridin-4-yl)-1-{9-methoxy-spiro[2H-1,5-benzodioxepin-3(4H),3′-thietane]-6-yl}ethanone] | 17 nM | 35 nM | – |
| COc1ccc(C(=O)Cc2nccnc2Br)c2c1OC1(CCSCC1)O2 [Compound 115] | 1410 nM | 471 nM | – |
| COc1ccc(C(=O)Cc2ccccc2Cl)c2c1OC1(CCSCC1)O2 [Compound 120, 2-(2-chloro-phenyl)-1-(7-methoxy-2′,3′,5′,6′-tetrahydro-spiro[1,3-benzo-dioxole-2,4′-(4H)-thiopyran]-4-yl)ethanone] | 310 nM | 1250 nM | – |
| COC(=O)N1CCC2(CC1)Oc1c(OC)ccc(C(=O)Cc3c(Cl)cncc3Cl)c1O2 [Compound 106, 2-(3,5-Dichloropyridine-4-yl)-1-(7-methoxy-1′-[methoxycarbonyl]-spiro[1,3-benzodioxole-2,4′-piperidine]-4-yl)ethanone] | – | 158 nM | 127 nM |
| COc1ccc(C(=O)Cc2c(Cl)cncc2Cl)c2c1OC1(CCNCC1)O2 [Compound 105, 2-(3,5-Dichloropyridine-4-yl)-1-(7-methoxy-spiro[1,3-benzodioxole-2,4′-piperidine]-4-yl)ethanone] | – | 800 nM | 310 nM |
| COc1ccc(C(=O)Cc2c(Cl)cncc2Cl)c2c1OC1(CCSC1)O2 (centres unmarked) [Compound 104, 2-(3,5-Dichloropyridine-4-yl)-1-(7-methoxy-4′,5′-dihydro-spiro[1,3-benzo-dioxole-2,3′-(2H)-thiophen]-4-yl)ethanone] | 10 nM | 44 nM | – |
| COc1ccc(C(=O)Nc2c(Cl)cncc2Cl)c2c1OC1(CCOCC1)O2 [Compound 102, N-(3,5-Dichloropyridine-4-yl)-7-methoxy-2′,3′,5′,6′-tetrahydro-spiro[1,3-benzodioxole-2,4′-(4H)-pyran]-4-carboxamide] | 41 nM | 88 nM | – |
| COc1ccc(C(=O)Cc2c(Cl)cncc2Cl)c2c1OCC1(CCOCC1)CO2 [Compound 127, 2-(3,5-Dichloropyridin-4-yl)-1-{9-methoxy-spiro[2H-1,5-benzodioxepin-3(4H),4′-tetrahydropyran]-6-yl}ethanone] | 22 nM | 27 nM | – |
| COc1ccc(C(=O)Cc2c(Cl)cncc2Cl)c2c1OCC1(CO2)CSCSC1 [Compound 132, 2-(3,5-Dichloropyridin-4-yl)-1-{9-methoxy-spiro[2H-1,5-benzodioxepin-3(4H),5′-[1,3]dithiane]-6-yl}ethanone] | 26 nM | 29 nM | – |
| COc1ccc(C(=O)Cc2ccncc2Br)c2c1OC1(CCSCC1)O2 [Compound 114, 2-(3-bromopyridine-4-yl)-1-(7-methoxy-2′,3′,5′,6′-tetrahydro-spiro[1,3-benzodioxole-2,4′-(4H)-thiopyran]-4-yl)ethanone] | 45 nM | 95 nM | – |
| COc1ccc(C(=O)Cc2c(Cl)cccc2Cl)c2c1OC1(CCSCC1)O2 [Compound 119, 2-(2,6-Dichloro-phenyl)-1-(7-methoxy-2′,3′,5′,6′-tetrahydro-spiro[1,3-benzo-dioxole-2,4′-(4H)-thiopyran]-4-yl)ethanone] | 71 nM | 508 nM | – |
